{
  "source": "paper PMC5218480",
  "about": "(PLoS ONE, 2017)",
  "test_system": "MV-4-11 cells",
  "experiment": "Gene expression microarray analysis (Affymetrix PrimeView) and GSEA",
  "type": "cell-based, human",
  "parameters": "RFU PODN (11730768_x_at) / Fold change /veh PODN (11730768_x_at) / RFU LINC00158 (11744669_a_at) / Fold change /veh LINC00158 (11744669_a_at) / RFU DUSP10 (11751237_a_at) / Fold change /veh DUSP10 (11751237_a_at) / RFU ID3 (11757404_x_at) / Fold change /veh ID3 (11757404_x_at) / RFU PLEKHG5 (11737974_s_at) / Fold change /veh PLEKHG5 (11737974_s_at) / RFU LRRC4B (11730491_at) / Fold change /veh LRRC4B (11730491_at) / RFU GIMAP4 (11747438_a_at) / Fold change /veh GIMAP4 (11747438_a_at) / RFU KRT8 (11758183_x_at) / Fold change /veh KRT8 (11758183_x_at) / RFU CNN1 (11734310_a_at) / Fold change /veh CNN1 (11734310_a_at) / RFU VPS37D (11726825_at) / Fold change /veh VPS37D (11726825_at) / RFU C10orf10 (11716522_x_at) / Fold change /veh C10orf10 (11716522_x_at) / RFU KIR2DL2 /// KIR2DL4 /// KIR2DL5A /// KIR2DL5B /// KIR2DS1 /// KIR2DS2 /// KIR2DS3 /// KIR2DS4 /// KIR3DL3 /// KIR3DL3 /// KIR3DS1 (11738374_at) / Fold change /veh KIR2DL2 /// KIR2DL4 /// KIR2DL5A /// KIR2DL5B /// KIR2DS1 /// KIR2DS2 /// KIR2DS3 /// KIR2DS4 /// KIR3DL3 /// KIR3DL3 /// KIR3DS1 (11738374_at) / RFU C1QL1 (11718748_at) / Fold change /veh C1QL1 (11718748_at) / RFU TMPRSS4 (11747572_a_at) / Fold change /veh TMPRSS4 (11747572_a_at) / RFU HAMP (11756126_x_at) / Fold change /veh HAMP (11756126_x_at) / RFU RNFT2 (11725882_a_at) / Fold change /veh RNFT2 (11725882_a_at) / RFU NR4A2 (11747474_a_at) / Fold change /veh NR4A2 (11747474_a_at) / RFU ABCC12 (11746883_a_at) / Fold change /veh ABCC12 (11746883_a_at) / RFU TMEM136 (11760407_x_at) / Fold change /veh TMEM136 (11760407_x_at) / RFU CLDN22 /// WWC2 (11732394_at) / Fold change /veh CLDN22 /// WWC2 (11732394_at) / RFU HLA-DPB1 (11760878_x_at) / Fold change /veh HLA-DPB1 (11760878_x_at) / RFU SPINT1 (11716480_a_at) / Fold change /veh SPINT1 (11716480_a_at) / RFU GAP43 (11754022_s_at) / Fold change /veh GAP43 (11754022_s_at) / RFU A4GNT (11735810_at) / Fold change /veh A4GNT (11735810_at) / RFU PRB3 (11715151_x_at) / Fold change /veh PRB3 (11715151_x_at) / RFU TUBB4B (11761932_at) / Fold change /veh TUBB4B (11761932_at) / RFU CAPN14 (11732068_a_at) / Fold change /veh CAPN14 (11732068_a_at) / RFU TMCC2 (11721928_a_at) / Fold change /veh TMCC2 (11721928_a_at) / RFU IRGQ (11745062_a_at) / Fold change /veh IRGQ (11745062_a_at) / RFU FAM174B (11720279_a_at) / Fold change /veh FAM174B (11720279_a_at) / RFU TMPRSS4 (11748680_a_at) / Fold change /veh TMPRSS4 (11748680_a_at) / RFU FAM212B (11763350_a_at) / Fold change /veh FAM212B (11763350_a_at) / RFU PLEKHG5 (11743358_a_at) / Fold change /veh PLEKHG5 (11743358_a_at) / RFU ZSCAN30 (11745921_a_at) / Fold change /veh ZSCAN30 (11745921_a_at) / RFU CMKLR1 (11741424_a_at) / Fold change /veh CMKLR1 (11741424_a_at) / RFU LOC101060620 /// MAPK8IP1 (11723275_at) / Fold change /veh LOC101060620 /// MAPK8IP1 (11723275_at) / RFU SPTSSB (11747773_x_at) / Fold change /veh SPTSSB (11747773_x_at) / RFU PRSS12 (11739890_at) / Fold change /veh PRSS12 (11739890_at) / RFU BIN1 (11741810_x_at) / Fold change /veh BIN1 (11741810_x_at) / RFU WNT11 (11732464_a_at) / Fold change /veh WNT11 (11732464_a_at) / RFU C10orf10 (11716521_a_at) / Fold change /veh C10orf10 (11716521_a_at) / RFU C5orf56 (11738089_at) / Fold change /veh C5orf56 (11738089_at) / RFU CYB561 (11721691_x_at) / Fold change /veh CYB561 (11721691_x_at) / RFU ANKRD19P (11752326_a_at) / Fold change /veh ANKRD19P (11752326_a_at) / RFU OR2T12 /// OR2T33 /// OR2T8 (11738714_s_at) / Fold change /veh OR2T12 /// OR2T33 /// OR2T8 (11738714_s_at) / RFU VCAN (11748164_a_at) / Fold change /veh VCAN (11748164_a_at) / RFU JSRP1 (11732532_at) / Fold change /veh JSRP1 (11732532_at) / RFU KRTAP10-11 (11738290_x_at) / Fold change /veh KRTAP10-11 (11738290_x_at) / RFU MYO3A (11730013_a_at) / Fold change /veh MYO3A (11730013_a_at) / RFU EBF3 (11725865_a_at) / Fold change /veh EBF3 (11725865_a_at) / RFU CAMK2N1 (11719241_x_at) / Fold change /veh CAMK2N1 (11719241_x_at) / RFU C5orf56 (11738088_a_at) / Fold change /veh C5orf56 (11738088_a_at) / RFU OLFML3 (11715873_a_at) / Fold change /veh OLFML3 (11715873_a_at) / RFU LOC100653217 /// NTM (11731650_a_at) / Fold change /veh LOC100653217 /// NTM (11731650_a_at) / RFU MAPK11 (11762145_a_at) / Fold change /veh MAPK11 (11762145_a_at) / RFU FIZ1 (11724087_x_at) / Fold change /veh FIZ1 (11724087_x_at) / RFU OASL (11726364_x_at) / Fold change /veh OASL (11726364_x_at) / RFU SOX15 (11748057_x_at) / Fold change /veh SOX15 (11748057_x_at) / RFU CD79A (11719716_a_at) / Fold change /veh CD79A (11719716_a_at) / RFU HIST1H1D (11736915_at) / Fold change /veh HIST1H1D (11736915_at) / RFU CASKIN2 (11723855_a_at) / Fold change /veh CASKIN2 (11723855_a_at) / RFU LOC730098 (11760151_x_at) / Fold change /veh LOC730098 (11760151_x_at) / RFU OR4N2 (11742367_at) / Fold change /veh OR4N2 (11742367_at) / RFU PRRT2 (11749266_a_at) / Fold change /veh PRRT2 (11749266_a_at) / RFU SNX32 (11753110_a_at) / Fold change /veh SNX32 (11753110_a_at) / RFU CDHR5 (11726645_a_at) / Fold change /veh CDHR5 (11726645_a_at) / RFU RCAN1 (11760418_a_at) / Fold change /veh RCAN1 (11760418_a_at) / RFU FAM167A (11723789_a_at) / Fold change /veh FAM167A (11723789_a_at) / RFU FAM26E (11764081_at) / Fold change /veh FAM26E (11764081_at) / RFU ISYNA1 (11749810_s_at) / Fold change /veh ISYNA1 (11749810_s_at) / RFU ACY1 (11761880_at) / Fold change /veh ACY1 (11761880_at) / RFU 11764098_at / Fold change /veh 11764098_at / RFU SAMD14 (11745864_x_at) / Fold change /veh SAMD14 (11745864_x_at) / RFU NPB (11741838_a_at) / Fold change /veh NPB (11741838_a_at) / RFU TMPRSS6 (11731388_a_at) / Fold change /veh TMPRSS6 (11731388_a_at) / RFU KRTAP10-2 (11738614_at) / Fold change /veh KRTAP10-2 (11738614_at) / RFU ARHGAP8 /// PRR5-ARHGAP8 (11727945_x_at) / Fold change /veh ARHGAP8 /// PRR5-ARHGAP8 (11727945_x_at) / RFU KRTAP5-7 /// NADSYN1 (11734609_at) / Fold change /veh KRTAP5-7 /// NADSYN1 (11734609_at) / RFU RASL12 (11751679_a_at) / Fold change /veh RASL12 (11751679_a_at) / RFU CDKN2B (11736163_a_at) / Fold change /veh CDKN2B (11736163_a_at) / RFU PRF1 (11729649_at) / Fold change /veh PRF1 (11729649_at) / RFU, ZNF638 /// ZNF638-IT1 / Fold change vs veh, ZNF638 /// ZNF638-IT1 / RFU, PANK3 / Fold change vs veh, PANK3 / RFU, SH3YL1 / Fold change vs veh, SH3YL1 / RFU, ZEB2 / Fold change vs veh, ZEB2 / RFU, NRIP1 / Fold change vs veh, NRIP1 / RFU, PTTG1IP / Fold change vs veh, PTTG1IP / RFU, CAPN2 / Fold change vs veh, CAPN2 / RFU, MED14 / Fold change vs veh, MED14 / RFU, SNORA58 / Fold change vs veh, SNORA58 / RFU, C1orf63 / Fold change vs veh, C1orf63 / RFU, LRRFIP1 / Fold change vs veh, LRRFIP1 / RFU, NDUFAF7 / Fold change vs veh, NDUFAF7 / RFU, SLC12A2 / Fold change vs veh, SLC12A2 / RFU, IBTK / Fold change vs veh, IBTK / RFU, ESF1 / Fold change vs veh, ESF1 / Fold change vs veh, TMEM50B / RFU, TAOK1 / Fold change vs veh, TAOK1 / RFU, ACBD3 / Fold change vs veh, ACBD3 / RFU, TMA16 / Fold change vs veh, TMA16 / RFU, RWDD3 / Fold change vs veh, RWDD3 / RFU, BCAT1 / Fold change vs veh, BCAT1 / RFU, EDEM3 / Fold change vs veh, EDEM3 / RFU, TMEM33 / Fold change vs veh, TMEM33 / RFU, WDR75 / Fold change vs veh, WDR75 / RFU, AHCTF1 / Fold change vs veh, AHCTF1 / RFU, TFRC / Fold change vs veh, TFRC / RFU, ZDHHC17 / Fold change vs veh, ZDHHC17 / RFU, NOM1 / Fold change vs veh, NOM1 / RFU, ARL8B / Fold change vs veh, ARL8B / RFU, ZBTB11 / Fold change vs veh, ZBTB11 / RFU, TAMM41 / Fold change vs veh, TAMM41 / RFU, KIAA1704 /// LOC100996395 / Fold change vs veh, KIAA1704 /// LOC100996395 / RFU, ING1 / Fold change vs veh, ING1 / RFU, TRMT61B / Fold change vs veh, TRMT61B / RFU, FUBP3 / Fold change vs veh, FUBP3 / RFU, TP53 / Fold change vs veh, TP53 / RFU, TNKS2 / Fold change vs veh, TNKS2 / RFU, ZFP14 / Fold change vs veh, ZFP14 / RFU, ACTR2 / Fold change vs veh, ACTR2 / RFU, PPP3R1 / Fold change vs veh, PPP3R1 / RFU, PIK3R1 / Fold change vs veh, PIK3R1 / RFU, HNRNPA1 / Fold change vs veh, HNRNPA1 / RFU, RNF170 / Fold change vs veh, RNF170 / RFU, ZNF28 / Fold change vs veh, ZNF28 / RFU, RNGTT / Fold change vs veh, RNGTT / RFU, OGT / Fold change vs veh, OGT / RFU, BRD1 / Fold change vs veh, BRD1 / RFU, MARS / Fold change vs veh, MARS / RFU, ZNF655 / Fold change vs veh, ZNF655 / RFU, FAHD1 / Fold change vs veh, FAHD1 / RFU, BDP1 / Fold change vs veh, BDP1 / RFU, LRRCC1 / Fold change vs veh, LRRCC1 / RFU, ARID1A / Fold change vs veh, ARID1A / RFU, ZNF146 / Fold change vs veh, ZNF146 / RFU, ZNF330 / Fold change vs veh, ZNF330 / RFU, GPN3 / Fold change vs veh, GPN3 / RFU, C9orf123 / Fold change vs veh, C9orf123 / RFU, N4BP2L2 / Fold change vs veh, N4BP2L2 / RFU, ARFIP1 / Fold change vs veh, ARFIP1 / RFU, FAM179B / Fold change vs veh, FAM179B / RFU, BCL10 / Fold change vs veh, BCL10 / RFU, UHRF1BP1L / Fold change vs veh, UHRF1BP1L / RFU, BET1 / Fold change vs veh, BET1 / RFU, CNOT2 / Fold change vs veh, CNOT2 / RFU, ZNF268 / Fold change vs veh, ZNF268 / Fold change vs veh, ZNF507 / RFU, DGCR2 / Fold change vs veh, DGCR2 / RFU, WDSUB1 / Fold change vs veh, WDSUB1 / Fold change vs veh, HSP90B1 /// MIR3652 / RFU, ADSS / Fold change vs veh, ADSS / RFU, GK / Fold change vs veh, GK / RFU, ZNF148 / Fold change vs veh, ZNF148 / RFU, TAF9 / Fold change vs veh, TAF9 / RFU, SLC1A5 / Fold change vs veh, SLC1A5 / RFU, SLMO2 / Fold change vs veh, SLMO2 / RFU, ABCC4 / Fold change vs veh, ABCC4 / RFU, LOC101060439 /// RAP1B / Fold change vs veh, LOC101060439 /// RAP1B / RFU, RFX7 / Fold change vs veh, RFX7 / RFU, GTPBP10 / Fold change vs veh, GTPBP10 / RFU, CNEP1R1 / Fold change vs veh, CNEP1R1 / RFU, BIVM-ERCC5 /// ERCC5 / Fold change vs veh, BIVM-ERCC5 /// ERCC5 / RFU, ILF3 / Fold change vs veh, ILF3 / RFU 11762660_at / Fold change /veh 11762660_at / RFU VCAN (11757783_s_at) / Fold change /veh VCAN (11757783_s_at) / RFU DDX43 (11728927_at) / Fold change /veh DDX43 (11728927_at) / RFU KRT8 (11758188_x_at) / Fold change /veh KRT8 (11758188_x_at) / RFU NKD1 (11759106_at) / Fold change /veh NKD1 (11759106_at) / RFU SRD5A1 (11742802_a_at) / Fold change /veh SRD5A1 (11742802_a_at) / RFU TPSAB1 /// TPSB2 (11721975_s_at) / Fold change /veh TPSAB1 /// TPSB2 (11721975_s_at) / RFU GSTM3 (11746129_a_at) / Fold change /veh GSTM3 (11746129_a_at) / RFU IL23R (11737362_x_at) / Fold change /veh IL23R (11737362_x_at) / RFU TMEM51 (11727254_a_at) / Fold change /veh TMEM51 (11727254_a_at) / RFU PIWIL2 (11732686_x_at) / Fold change /veh PIWIL2 (11732686_x_at) / RFU ORM1 (11744905_x_at) / Fold change /veh ORM1 (11744905_x_at) / RFU CCDC152 (11743942_at) / Fold change /veh CCDC152 (11743942_at) / RFU ECM1 (11717891_a_at) / Fold change /veh ECM1 (11717891_a_at) / RFU IL23R (11748794_a_at) / Fold change /veh IL23R (11748794_a_at) / RFU TNFAIP8L3 (11732012_x_at) / Fold change /veh TNFAIP8L3 (11732012_x_at) / RFU MBOAT4 (11741988_at) / Fold change /veh MBOAT4 (11741988_at) / RFU 11764193_at / Fold change /veh 11764193_at / RFU TMEM53 (11763286_at) / Fold change /veh TMEM53 (11763286_at) / RFU MAGEB2 (11727129_at) / Fold change /veh MAGEB2 (11727129_at) / RFU TMEM200A (11744735_a_at) / Fold change /veh TMEM200A (11744735_a_at) / RFU CCDC152 (11751479_a_at) / Fold change /veh CCDC152 (11751479_a_at) / RFU FAM211A (11726209_a_at) / Fold change /veh FAM211A (11726209_a_at) / RFU RGS16 (11746705_a_at) / Fold change /veh RGS16 (11746705_a_at) / RFU VCAN (11755009_s_at) / Fold change /veh VCAN (11755009_s_at) / RFU RHOB (11743442_s_at) / Fold change /veh RHOB (11743442_s_at) / RFU RGS16 (11720943_a_at) / Fold change /veh RGS16 (11720943_a_at) / RFU RGS16 (11720944_at) / Fold change /veh RGS16 (11720944_at) / RFU, VPS4B / Fold change vs veh, VPS4B / RFU, CREB1 / Fold change vs veh, CREB1 / RFU, DNAJC13 / Fold change vs veh, DNAJC13 / RFU, GNAQ / Fold change vs veh, GNAQ / RFU, CDK5R1 / Fold change vs veh, CDK5R1 / RFU, ZRANB3 / Fold change vs veh, ZRANB3 / RFU, CUL4A / Fold change vs veh, CUL4A / RFU, CCNY / Fold change vs veh, CCNY / RFU, UFL1 / Fold change vs veh, UFL1 / RFU, COG3 / Fold change vs veh, COG3 / RFU, DIAPH2 / Fold change vs veh, DIAPH2 / RFU, SKA2 / Fold change vs veh, SKA2 / RFU, AFF3 / Fold change vs veh, AFF3 / RFU, LMF1 / Fold change vs veh, LMF1 / RFU, IPO11 / Fold change vs veh, IPO11 / RFU, DFFB / Fold change vs veh, DFFB / RFU, FOXP1 / Fold change vs veh, FOXP1 / RFU, CARD8 / Fold change vs veh, CARD8 / RFU, STRN3 / Fold change vs veh, STRN3 / RFU, ADK / Fold change vs veh, ADK / RFU, RASSF2 / Fold change vs veh, RASSF2 / RFU, WIPF1 / Fold change vs veh, WIPF1 / RFU, LARP1B / Fold change vs veh, LARP1B / RFU, RASA1 / Fold change vs veh, RASA1 / RFU, RB1 / Fold change vs veh, RB1 / RFU, PPFIA1 / Fold change vs veh, PPFIA1 / RFU, MAT2A / Fold change vs veh, MAT2A / RFU, CCT5 / Fold change vs veh, CCT5 / RFU, WDR92 / Fold change vs veh, WDR92 / RFU, CUX1 / Fold change vs veh, CUX1 / RFU, TTC7A / Fold change vs veh, TTC7A / RFU, TMEM135 / Fold change vs veh, TMEM135 / RFU, DEPTOR / Fold change vs veh, DEPTOR / RFU, CPM / Fold change vs veh, CPM / RFU, DNAJB6 / Fold change vs veh, DNAJB6 / RFU, CACNA2D3 / Fold change vs veh, CACNA2D3 / RFU, DTX4 / Fold change vs veh, DTX4 / RFU, TFCP2 / Fold change vs veh, TFCP2 / RFU, GMCL1 /// GMCL1P1 / Fold change vs veh, GMCL1 /// GMCL1P1 / RFU, AEBP2 / Fold change vs veh, AEBP2 / RFU, SNHG1 /// SNORD22 /// SNORD25 /// SNORD26 /// SNORD27 /// SNORD28 /// SNORD29 /// SNORD31 / Fold change vs veh, SNHG1 /// SNORD22 /// SNORD25 /// SNORD26 /// SNORD27 /// SNORD28 /// SNORD29 /// SNORD31 / Fold change (Aza/veh), C12orf56 (ProbeSet 11735607_a_at) / Fold change (ACY-1035/veh), C12orf56 (ProbeSet 11735607_a_at) / Fold change (Aza/veh), FGFR1OP (ProbeSet 11751329_s_at) / Fold change (ACY-1035/veh), FGFR1OP (ProbeSet 11751329_s_at) / Fold change (Aza/veh), VPS36 (ProbeSet 11739960_a_at) / Fold change (ACY-1035/veh), VPS36 (ProbeSet 11739960_a_at) / RFU SYPL1 (11715823_x_at) / Fold change /veh SYPL1 (11715823_x_at) / RFU IGFBP7 (11715501_s_at) / Fold change /veh IGFBP7 (11715501_s_at) / RFU REEP3 (11722064_at) / Fold change /veh REEP3 (11722064_at) / RFU IGLL1 (11728026_x_at) / Fold change /veh IGLL1 (11728026_x_at): dose or concentration left out as unconfirmed",
  "settings": "ProbeSet 11716931_at; LIST B",
  "data": [
    {"smiles": "Nc1ccc(-c2cccs2)cc1NC(=O)c1ccc2c(c1)cc(C1CC1)n2CCN1CCOCC1", "note": "[ACY-1035]", "values": [
      {"measurement": "Fold change vs veh, DGCR2", "value": 1.13}
    ]}
  ]
}
